Values quoted from earlier work in patent publication US20040147522A1, “Compounds having both alpha7 nicotinic agonist activity and 5HT3 antagonist activity for the treatment of CNS diseases” (priority 2002, published 2004).

Legend:
[1] = biological target: T1, 5HT3R (Homo sapiens, UniProt P46098)
T1 sequence (P46098 24-478): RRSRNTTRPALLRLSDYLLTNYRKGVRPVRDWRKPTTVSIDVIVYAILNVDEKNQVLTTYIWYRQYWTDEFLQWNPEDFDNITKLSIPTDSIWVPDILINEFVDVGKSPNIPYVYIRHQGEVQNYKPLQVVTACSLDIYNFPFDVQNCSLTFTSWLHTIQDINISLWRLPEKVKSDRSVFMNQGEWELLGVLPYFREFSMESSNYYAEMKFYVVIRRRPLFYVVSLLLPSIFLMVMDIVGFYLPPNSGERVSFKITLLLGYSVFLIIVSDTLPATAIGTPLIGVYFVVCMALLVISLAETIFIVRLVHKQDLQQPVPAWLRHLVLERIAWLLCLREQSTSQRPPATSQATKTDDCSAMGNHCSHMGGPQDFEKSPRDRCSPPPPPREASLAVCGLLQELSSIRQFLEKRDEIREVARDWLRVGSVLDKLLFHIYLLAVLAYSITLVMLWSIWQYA

[2] = biological target: α7 nAChR (Homo sapiens, UniProt P36544)
Chain of α7 nAChR (P36544 23-502): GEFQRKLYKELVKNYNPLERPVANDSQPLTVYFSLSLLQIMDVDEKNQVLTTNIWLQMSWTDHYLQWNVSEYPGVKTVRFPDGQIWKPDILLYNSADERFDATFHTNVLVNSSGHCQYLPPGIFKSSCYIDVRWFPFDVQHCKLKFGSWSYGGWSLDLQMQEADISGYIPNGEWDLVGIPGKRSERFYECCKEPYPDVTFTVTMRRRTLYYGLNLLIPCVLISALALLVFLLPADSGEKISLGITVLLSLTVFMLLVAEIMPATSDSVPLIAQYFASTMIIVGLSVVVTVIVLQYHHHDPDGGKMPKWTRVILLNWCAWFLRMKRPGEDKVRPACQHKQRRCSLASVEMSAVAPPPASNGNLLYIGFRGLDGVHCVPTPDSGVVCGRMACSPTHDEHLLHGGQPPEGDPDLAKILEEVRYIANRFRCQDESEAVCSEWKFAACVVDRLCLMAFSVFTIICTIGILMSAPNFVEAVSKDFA

COc1ccc(/C=C2\CCCN=C2c2cccnc2)c(OC)c1 [GTS-21]
activity at the 5HT3R [1]: little activity

Cc1nccn1CC1CCc2c(c3ccccc3n2C)C1=O (stereo not drawn) [Ondansetron]
activity at the α7 nAChR [2]: little activity

CN1[C@@H]2CC[C@H]1C[C@@H](OC(=O)c1c[nH]c3ccccc13)C2 [tropesitron]
α7 nicotinic agonist activity ([2]; reported by Macor et al. 2001): α7 nicotinic agonist activity
